Measurements published in ChEMBL document CHEMBL1122042, “Chemical synthesis and molecular pharmacology of hydroxylated 1-(1-phenylcyclohexyl-piperidine derivatives” (1982).

species on record: Mus musculus; assay: Effective dose for inhibition of phencyclidine binding measured in mouse rotarod assay; format: functional

Row | Structure (SMILES) | ED50
1 | Oc1cccc(C2(N3CCCCC3)CCCCC2)c1 | 2.2 mg/kg
2 | OC1CCCC(c2ccccc2)(N2CCCCC2)C1 (stereo unspecified) | 49.9 mg/kg
3 | Oc1ccc(C2(N3CCCCC3)CCCCC2)cc1 | 28 mg/kg
4 | OC1CCN(C2(c3ccccc3)CCCCC2)CC1 | 42 mg/kg
5 | Oc1ccccc1C1(N2CCCCC2)CCCCC1 | 18 mg/kg
6 | c1ccc(C2(N3CCCCC3)CCCCC2)cc1 [PHENCYCLIDINE] | 4 mg/kg
